US20240360178A1, “MACROCYCLIC IMMUNOMODULATORS” (Bristol-Myers Squibb Company, priority 2021, published 2024)
Positions of bridges follow the written chain, without caps; N, C: chain ends. Non-standard residues stand in square brackets, D forms with d. Residues, ends and D or L forms follow the SMILES beside them. ξ: configuration not given here. *: point of attachment. Bip = N[C@@H](Cc1ccc(-c2ccccc2)cc1)C(=O)O; Phe(3-Br) = N[C@@H](Cc1cccc(Br)c1)C(=O)O; NMeF = CN[C@@H](Cc1ccccc1)C(=O)O; 4Pal = N[C@@H](Cc1ccncc1)C(=O)O; Cha = N[C@@H](CC1CCCCC1)C(=O)O; Carboxymethyl = O=C(O)C*; NMeA = CN[C@@H](C)C(=O)O; Orn = NCCC[C@H](N)C(=O)O; Dab = NCC[C@H](N)C(=O)O; Dap = NC[C@H](N)C(=O)O; ξV = CC(C)C(N)C(=O)O; Sar = CNCC(=O)O

Molecular target: T1, human PD-1 (Jurkat-PD-1 cells) / PE-labeled human PD-L1-Ig (Homo sapiens, UniProt Q15116)
T1 construct: expressed in transfected cells; host or cells: Jurkat cell line over-expressing human PD-1
T1 sequence (Q15116 25-288): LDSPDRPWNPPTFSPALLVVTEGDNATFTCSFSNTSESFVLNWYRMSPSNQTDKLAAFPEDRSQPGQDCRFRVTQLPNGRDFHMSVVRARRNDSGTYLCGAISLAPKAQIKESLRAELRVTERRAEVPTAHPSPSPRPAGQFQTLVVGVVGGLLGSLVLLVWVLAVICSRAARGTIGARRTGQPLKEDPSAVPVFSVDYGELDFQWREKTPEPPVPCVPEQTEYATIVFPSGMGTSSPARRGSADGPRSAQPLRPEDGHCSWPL
Assay: Jurkat-PD-1 Cell Binding High-Content Screening Assay (CBA); Jurkat hPD1-PDL1 assay
Settings: Jurkat cell line over-expressing human PD-1; PE-labeled PD-L1-Ig 20 nM final; compound incubated 2 hours at 37° C.; read-out: Jurkat HPD1-PDL1 IC50
Protocol: The ability of the compounds of formula (I) to bind to PD-1 was investigated using a Jurkat-PD-1 Cell Binding High-Content Screening Assay.
Jurkat-PD-1 Cell Binding High-Content Screening Assay (CBA)
Phycoerythrin (PE) was covalently linked to the Ig epitope tag of human PD-L1-Ig and fluorescently-labeled PD-L1-Ig was used for binding studies with a Jurkat cell line over-expressing human PD-1 (Jurkat-PD-1). Briefly, 8×10^3 Jurkat-hPD-1 cells were seeded into 384 well plates in 20 μL of DMEM supplemented with 10% fetal calf serum. 100 nL of compound was added to cells followed by incubation at 37° C. for 2 hours. Then, 5 μL of PE-labeled PD-L1-Ig (20 nM final), diluted in DMEM supplemented with 10% fetal calf serum. […] Data was collected and processed using a Cell Insight NXT High Content Imager and associated software.

Row | Structure (SMILES) | IC50 [nM]
1 | CC[C@H](C)[C@@H]1NC(=O)[C@H](Cc2c[nH]c3ccccc23)NC(=O)[C@H](CC(=O)O)NC(=O)[C@H](Cc2ccc(O)cc2)NC(=O)[C@H](Cc2ccccc2)NC(=O)CSC[C@@H](C(=O)NCC(N)=O)NC(=O)[C@H](CO)NC(=O)[C@H](C(C)C)NC(=O)[C@H](CC(C)C)NC(=O)[C@H](CCCNC(=N)N)NC(=O)[C@H](Cc2ccccc2)N(C)C(=O)[C@H](C)N(C)C(=O)[C@H](CCCNC(=N)N)NC(=O)[C@H](Cc2ccc(-c3ccccc3)cc2)NC1=O [Example 1284] ({CH2CO}-FYDWI[Bip]R[NMeA][NMeF]RLVSCG-NH2; thioether N-14) | 820
2 | CC(C)C[C@@H]1NC(=O)[C@H](CCCNC(=N)N)NC(=O)[C@H](Cc2ccccc2)N(C)C(=O)[C@H](C)N(C)C(=O)[C@H](CCCNC(=N)N)NC(=O)[C@H](Cc2ccc(-c3ccccc3)cc2)NC(=O)[C@H](C(C)C)NC(=O)[C@H](Cc2c[nH]c3ccccc23)NC(=O)[C@H](CC(=O)O)NC(=O)[C@H](Cc2ccc(O)cc2)NC(=O)[C@H](CC(N)=O)NC(=O)CSC[C@@H](C(=O)N[C@@H](C)C(N)=O)NC(=O)[C@H]([C@@H](C)O)NC(=O)[C@H](C(C)C)NC1=O [Example 1355] ({CH2CO}-NYDWV[Bip]R[NMeA][NMeF]RLVTCA-NH2; thioether N-14) | 410
3 | CC(C)C[C@@H]1NC(=O)[C@H](Cc2c[nH]c3ccccc23)NC(=O)[C@H](CC(=O)O)NC(=O)[C@H](Cc2ccc(O)cc2)NC(=O)[C@H](Cc2ccccc2)NC(=O)CSC[C@@H](C(=O)N[C@@H](C)C(N)=O)NC(=O)[C@H]([C@@H](C)O)NC(=O)[C@H](CCCNC(=N)N)NC(=O)[C@H](CC(C)C)NC(=O)[C@H](CC(N)=O)NC(=O)[C@H]2CCCN2C(=O)[C@H](C)N(C)C(=O)[C@H](C(C)C)NC(=O)[C@H](Cc2ccc(-c3ccccc3)cc2)NC1=O [Example 1171] ({CH2CO}-FYDWL[Bip]V[NMeA][dP]NLRTCA-NH2; thioether N-14) | 940
4 | CC(C)C[C@@H]1NC(=O)[C@H](CCCNC(=N)N)NC(=O)[C@H](Cc2ccccc2)N(C)C(=O)[C@H](C)N(C)C(=O)[C@H](CCCNC(=N)N)NC(=O)[C@H](Cc2ccc(-c3ccccc3)cc2)NC(=O)[C@H](C(C)C)NC(=O)[C@H](Cc2c[nH]c3ccccc23)NC(=O)[C@H](CC(=O)O)NC(=O)[C@H](Cc2ccc(O)cc2)NC(=O)[C@H](CCC(N)=O)NC(=O)CSC[C@@H](C(=O)NCC(N)=O)NC(=O)[C@H]([C@@H](C)O)NC(=O)[C@H](C(C)C)NC1=O [Example 1311] ({CH2CO}-QYDWV[Bip]R[NMeA][NMeF]RLVTCG-NH2; thioether N-14) | 750
5 | CC(C)C[C@@H]1NC(=O)[C@H](Cc2c[nH]c3ccccc23)NC(=O)[C@H](CC(=O)O)NC(=O)[C@H](Cc2ccc(O)cc2)NC(=O)[C@H](Cc2ccncc2)NC(=O)CSC[C@@H](C(=O)NCC(N)=O)NC(=O)[C@H](CO)NC(=O)[C@H](C(C)C)NC(=O)[C@H](CC(C)C)NC(=O)[C@H](CC(N)=O)NC(=O)CN(C)C(=O)[C@H](C)N(C)C(=O)[C@H](C(C)C)NC(=O)[C@H](Cc2ccc(-c3ccccc3)cc2)NC1=O [Example 1107] ({CH2CO}-[4Pal]YDWL[Bip]V[NMeA][Sar]NLVSCG-NH2; thioether N-14) | 340
6 | CC(C)C[C@@H]1NC(=O)[C@H](CC(N)=O)NC(=O)CN(C)C(=O)[C@H](C)N(C)C(=O)[C@H](C(C)C)NC(=O)[C@H](Cc2ccc(-c3ccccc3)cc2)NC(=O)[C@H](CC(C)C)NC(=O)[C@H](Cc2c[nH]c3ccccc23)NC(=O)[C@H](CC(=O)O)NC(=O)[C@H](Cc2ccc(O)cc2)NC(=O)[C@H](Cc2ccccc2)NC(=O)CSC[C@@H](C(=O)NCC(N)=O)NC(=O)[C@H](CO)NC(=O)[C@H](C)NC1=O [Example 1111] ({CH2CO}-FYDWL[Bip]V[NMeA][Sar]NLASCG-NH2; thioether N-14) | 350
7 | CC(C)C[C@@H]1NC(=O)[C@H](Cc2c[nH]c3ccccc23)NC(=O)[C@H](CC(=O)O)NC(=O)[C@H](Cc2ccc(O)cc2)NC(=O)[C@H](Cc2ccccc2)NC(=O)CSC[C@@H](C(=O)N[C@@H](C)C(N)=O)NC(=O)[C@H](CCC(N)=O)NC(=O)[C@H](C(C)C)NC(=O)[C@H](CC(C)C)NC(=O)[C@H](CC(N)=O)NC(=O)CN(C)C(=O)[C@H](C)N(C)C(=O)[C@H](C(C)C)NC(=O)[C@H](Cc2ccc(-c3ccccc3)cc2)NC1=O [Example 1136] ({CH2CO}-FYDWL[Bip]V[NMeA][Sar]NLVQCA-NH2; thioether N-14) | 560
8 | CC(C)C[C@@H]1NC(=O)[C@H](Cc2c[nH]c3ccccc23)NC(=O)[C@H](CC(=O)O)NC(=O)[C@H](Cc2cccc(Br)c2)NC(=O)[C@H](Cc2ccccc2)NC(=O)CSC[C@@H](C(=O)N[C@@H](C)C(N)=O)NC(=O)[C@H](CO)NC(=O)[C@H](C(C)C)NC(=O)[C@H](CC(C)C)NC(=O)[C@H](CC(N)=O)NC(=O)[C@H]2CCCN2C(=O)[C@H](C)N(C)C(=O)[C@H](C(C)C)NC(=O)[C@H](Cc2ccc(-c3ccccc3)cc2)NC1=O [Example 1065] ({CH2CO}-F[Phe(3-Br)]DWL[Bip]V[NMeA][dP]NLVSCA-NH2; thioether N-14) | 120
9 | CC(C)C[C@@H]1NC(=O)[C@H](Cc2c[nH]c3ccccc23)NC(=O)[C@H](CC(=O)O)NC(=O)[C@H](Cc2ccc(O)cc2)NC(=O)[C@H](Cc2ccccc2)NC(=O)CSC[C@@H](C(=O)NCC(N)=O)NC(=O)[C@H]([C@@H](C)O)NC(=O)[C@H](C(C)C)NC(=O)[C@H](CC(C)C)NC(=O)[C@H](CCN)NC(=O)[C@H]2CCCN2C(=O)[C@H](CCN)NC(=O)[C@H](C(C)C)NC(=O)[C@H](Cc2ccc(-c3ccccc3)cc2)NC1=O [Example 1414] ({CH2CO}-FYDWL[Bip]V[Dab][dP][Dab]LVTCG-NH2; thioether N-14) | 320
10 | CC(C)C1NC(=O)[C@H](Cc2c[nH]c3ccccc23)NC(=O)[C@H](CC(=O)O)NC(=O)[C@H](Cc2ccc(OCC(=O)O)cc2)NC(=O)[C@H](CN)NC(=O)CSC[C@@H](C(=O)N[C@@H](C)C(N)=O)NC(=O)[C@H]([C@@H](C)O)NC(=O)[C@H](C(C)C)NC(=O)[C@H](CC2CCCCC2)NC(=O)[C@H](CCN)NC(=O)[C@H](Cc2ccccc2)N(C)C(=O)[C@H](CCCN)NC(=O)[C@H](CCC(=O)O)NC(=O)[C@H](Cc2ccc(-c3ccccc3)cc2)NC1=O (stereo partly drawn) [Example 1442] ({CH2CO}-[Dap]Y(Carboxymethyl)DW[ξV][Bip]E[Orn][NMeF][Dab][Cha]VTCA-NH2; thioether N-14) | 70
11 | CC(C)C[C@@H]1NC(=O)[C@H](CCCNC(=N)N)NC(=O)[C@H](Cc2ccccc2)N(C)C(=O)[C@H](C)N(C)C(=O)[C@H](CCCNC(=N)N)NC(=O)[C@H](Cc2ccc(-c3ccccc3)cc2)NC(=O)[C@H](C(C)C)NC(=O)[C@H](Cc2c[nH]c3ccccc23)NC(=O)[C@H](CC(=O)O)NC(=O)[C@H](Cc2ccc(O)cc2)NC(=O)[C@H](Cc2cnc[nH]2)NC(=O)CSC[C@@H](C(=O)NCC(N)=O)NC(=O)[C@H]([C@@H](C)O)NC(=O)[C@H](C(C)C)NC1=O [Example 1317] ({CH2CO}-HYDWV[Bip]R[NMeA][NMeF]RLVTCG-NH2; thioether N-14) | 60
12 | CC(C)C[C@@H]1NC(=O)[C@H](CC(N)=O)NC(=O)CN(C)C(=O)[C@H](C)N(C)C(=O)[C@H](C(C)C)NC(=O)[C@H](Cc2ccc(-c3ccccc3)cc2)NC(=O)[C@H](CC(C)C)NC(=O)[C@H](Cc2c[nH]c3ccccc23)NC(=O)[C@H](CC(=O)O)NC(=O)[C@H](Cc2ccc(O)cc2)NC(=O)[C@H](Cc2ccccc2)NC(=O)CSC[C@@H](C(=O)NCC(N)=O)NC(=O)[C@H](CO)NC(=O)[C@H](CCCCN)NC1=O [Example 1104] ({CH2CO}-FYDWL[Bip]V[NMeA][Sar]NLKSCG-NH2; thioether N-14) | 320
